From US10040781B2, “Tank-binding kinase inhibitor compounds” (Gilead Sciences, Inc., priority 2014, dated 2018)

Key:
IKKε = IKKε (Homo sapiens (Human), UniProt Q14164); assay: IKKε TR-FRET enzymatic assay; assay type: biochemical; conditions: read-out: IKKe IC50
hJAK2 = hJAK2 (Homo sapiens (Human), UniProt O60674); assay: hJAK2 LANCE TR-FRET enzymatic assay; assay type: biochemical; conditions: read-out: JAK2 IC50
TBK1 = TBK1 (Homo sapiens (Human), UniProt Q9UHD2); assay: TBK1 TR-FRET enzymatic assay;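 note: phosphorylation of a biotinylated Ser/Thr peptide by purified full-length recombinant TBK1, read by TR-FRET after 240 min at 25 °C, IC50 is the geometric mean of at least four runs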
Sequence of TBK1 (Q9UHD2 whole entry): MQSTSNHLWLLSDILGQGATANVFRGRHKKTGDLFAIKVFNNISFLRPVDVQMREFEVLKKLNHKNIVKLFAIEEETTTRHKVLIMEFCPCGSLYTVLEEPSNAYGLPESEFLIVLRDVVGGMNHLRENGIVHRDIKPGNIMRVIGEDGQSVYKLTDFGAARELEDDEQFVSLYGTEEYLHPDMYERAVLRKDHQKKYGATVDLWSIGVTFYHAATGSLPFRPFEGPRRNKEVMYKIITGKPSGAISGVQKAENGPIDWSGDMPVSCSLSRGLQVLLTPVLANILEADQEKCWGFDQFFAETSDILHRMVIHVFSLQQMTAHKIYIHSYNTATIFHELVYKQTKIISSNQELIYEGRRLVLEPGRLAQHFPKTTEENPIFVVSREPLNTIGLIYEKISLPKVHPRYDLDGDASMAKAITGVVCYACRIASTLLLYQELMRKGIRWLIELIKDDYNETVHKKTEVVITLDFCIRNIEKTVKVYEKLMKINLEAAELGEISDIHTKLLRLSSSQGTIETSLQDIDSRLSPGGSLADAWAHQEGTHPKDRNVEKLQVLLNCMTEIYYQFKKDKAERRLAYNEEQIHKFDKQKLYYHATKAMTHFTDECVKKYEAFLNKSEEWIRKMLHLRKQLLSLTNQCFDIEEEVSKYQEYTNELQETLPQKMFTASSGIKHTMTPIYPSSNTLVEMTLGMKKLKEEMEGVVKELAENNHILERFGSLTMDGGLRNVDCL
Method: Enzymatic activity of IKKε and TBK1 was measured using a homogeneous time resolved fluorescence resonance energy transfer (TR-FRET) assay that monitors enzyme dependent phosphorylation of a biotinylated serine/threonine peptide substrate. […] TBK1 and IKKε were expressed and purified as full length recombinant proteins. Detection reagents for the assay were purchased from Cisbio. […] After an assay reaction time of 240 minutes at 25° C., reactions were terminated with EDTA.
All IC50 values represent geometric mean values of a minimum of four determinations.

Sequence of IKKε (Q14164 whole entry): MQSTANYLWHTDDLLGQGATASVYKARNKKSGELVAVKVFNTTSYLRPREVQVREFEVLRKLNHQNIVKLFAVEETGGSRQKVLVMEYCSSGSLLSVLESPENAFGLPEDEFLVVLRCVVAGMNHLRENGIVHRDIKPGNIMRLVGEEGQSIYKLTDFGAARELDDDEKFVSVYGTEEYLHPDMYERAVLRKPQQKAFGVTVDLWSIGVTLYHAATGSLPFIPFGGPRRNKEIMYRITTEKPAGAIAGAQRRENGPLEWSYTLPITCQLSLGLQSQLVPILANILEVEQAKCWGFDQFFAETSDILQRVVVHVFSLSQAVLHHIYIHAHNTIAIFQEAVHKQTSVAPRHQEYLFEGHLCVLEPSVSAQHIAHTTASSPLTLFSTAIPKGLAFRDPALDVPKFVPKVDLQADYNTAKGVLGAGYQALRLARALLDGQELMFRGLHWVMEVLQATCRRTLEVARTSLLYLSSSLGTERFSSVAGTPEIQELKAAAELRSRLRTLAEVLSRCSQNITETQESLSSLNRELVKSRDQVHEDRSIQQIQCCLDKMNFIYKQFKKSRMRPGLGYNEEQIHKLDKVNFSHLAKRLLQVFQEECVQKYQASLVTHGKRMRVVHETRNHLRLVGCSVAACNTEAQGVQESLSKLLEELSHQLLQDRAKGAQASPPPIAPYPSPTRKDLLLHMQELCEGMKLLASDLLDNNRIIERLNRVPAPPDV
Sequence of hJAK2 (O60674 whole entry): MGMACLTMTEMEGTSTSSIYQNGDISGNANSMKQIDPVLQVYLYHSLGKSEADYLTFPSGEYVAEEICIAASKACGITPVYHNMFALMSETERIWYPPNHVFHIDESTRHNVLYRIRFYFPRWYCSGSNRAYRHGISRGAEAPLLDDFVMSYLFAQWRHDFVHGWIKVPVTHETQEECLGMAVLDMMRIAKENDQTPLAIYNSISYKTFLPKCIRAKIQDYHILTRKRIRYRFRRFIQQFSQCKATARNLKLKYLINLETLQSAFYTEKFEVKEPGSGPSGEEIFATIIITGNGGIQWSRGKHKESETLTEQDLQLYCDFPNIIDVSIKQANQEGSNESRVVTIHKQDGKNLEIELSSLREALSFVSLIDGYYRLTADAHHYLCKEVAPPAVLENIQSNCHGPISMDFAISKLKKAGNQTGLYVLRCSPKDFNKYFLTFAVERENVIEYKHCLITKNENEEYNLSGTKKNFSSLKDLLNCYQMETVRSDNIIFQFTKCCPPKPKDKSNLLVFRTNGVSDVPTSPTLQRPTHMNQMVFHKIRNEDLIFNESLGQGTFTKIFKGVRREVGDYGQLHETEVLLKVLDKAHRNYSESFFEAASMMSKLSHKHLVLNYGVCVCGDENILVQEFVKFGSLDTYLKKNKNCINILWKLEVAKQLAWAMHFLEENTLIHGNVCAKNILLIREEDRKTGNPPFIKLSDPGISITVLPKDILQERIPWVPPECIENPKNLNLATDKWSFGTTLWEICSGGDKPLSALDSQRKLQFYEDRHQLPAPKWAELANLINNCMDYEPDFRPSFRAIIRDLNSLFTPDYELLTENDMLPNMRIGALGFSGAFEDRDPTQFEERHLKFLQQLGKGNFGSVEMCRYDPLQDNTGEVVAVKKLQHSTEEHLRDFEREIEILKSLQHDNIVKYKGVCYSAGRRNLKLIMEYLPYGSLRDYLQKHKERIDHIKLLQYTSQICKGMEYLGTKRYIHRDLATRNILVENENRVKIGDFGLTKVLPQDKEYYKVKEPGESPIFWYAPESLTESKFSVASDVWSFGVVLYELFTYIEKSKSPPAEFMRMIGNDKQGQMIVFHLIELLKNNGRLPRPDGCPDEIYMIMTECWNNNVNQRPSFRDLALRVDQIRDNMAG

| Compound | IC50 (IKKε) [nM] | IC50 (hJAK2) [nM] | IC50 (TBK1) [nM] |
| --- | --- | --- | --- |
| N#Cc1cc(-c2ncnc(Nc3ccc(N4CCN(C5COC5)CC4)cc3)n2)cc(F)c1OC1CCS(=O)(=O)CC1 [Example 271, 2-((1,1-dioxidotetrahydro-2H-thiopyran-4-yl)oxy)-3-fluoro-5-(4-((4-(4-(oxetan-3-yl)piperazin-1-yl)phenyl)amino)-1,3,5-triazin-2-yl)benzonitrile] | 110 | ≥ 1000 | 18 |
| CS(=O)(=O)C1CN(c2ccc(-c3ncnc(Nc4ccc(N5CCN(C6COC6)CC5)cc4)n3)cc2C#N)C1 [Example 272, 2-(3-(methylsulfonyl)azetidin-1-yl)-5-(4-((4-(4-(oxetan-3-yl)piperazin-1-yl)phenyl)amino)-1,3,5-triazin-2-yl)benzonitrile] | 53 | 68 | 28 |
| CS(=O)(=O)N1CC(Oc2ccc(-c3ncnc(Nc4ccc(N5CCN(C6COC6)CC5)cc4)n3)cc2C#N)C1 [Example 273, 2-((1-(methylsulfonyl)azetidin-3-yl)oxy)-5-(4-((4-(4-(oxetan-3-yl)piperazin-1-yl)phenyl)amino)-1,3,5-triazin-2-yl)benzonitrile] | 285 | 133 | 139 |
| N#Cc1cc(-c2ncnc(Nc3ccc(N4CCN(C5COC5)CC4)cc3)n2)ccc1OC1CN(C(=O)CO)C1 [Example 274, 2-((1-(2-hydroxyacetyl)azetidin-3-yl)oxy)-5-(4-((4-(4-(oxetan-3-yl)piperazin-1-yl)phenyl)amino)-1,3,5-triazin-2-yl)benzonitrile] | ≥ 1000 | ≥ 1000 | 47 |
| N#Cc1cc(-c2ncnc(Nc3ccc4oc(=O)[nH]c4c3)n2)ccc1OC1CCOCC1 [Example 277, 5-(4-((2-oxo-2,3-dihydrobenzo[d]oxazol-5-yl)amino)-1,3,5-triazin-2-yl)-2-((tetrahydro-2H-pyran-4-yl)oxy)benzonitrile] | 47 | ≥ 1000 | 18 |
| CC1(C)C(=O)Nc2ccc(Nc3ncnc(-c4ccc(OC5CCOCC5)c(C#N)c4)n3)cc21 [Example 278, 5-(4-((3,3-dimethyl-2-oxoindolin-5-yl)amino)-1,3,5-triazin-2-yl)-2-((tetrahydro-2H-pyran-4-yl)oxy)benzonitrile] | 9 | 541 | 4 |
| N#Cc1cc(-c2ncnc(Nc3ccc(N4CCN(C5COC5)CC4)cc3)n2)ccc1OC1CCC2(CC1)OCCO2 [Example 279, 2-(1,4-dioxaspiro[4.5]decan-8-yloxy)-5-(4-((4-(4-(oxetan-3-yl)piperazin-1-yl)phenyl)amino)-1,3,5-triazin-2-yl)benzonitrile] | 75 | ≥ 1000 | 27 |
| N#Cc1cc(-c2ncnc(Nc3ccc(N4CCN(C5COC5)CC4)cc3)n2)ccc1OCC1(F)COC1 [Example 280, 2-((3-fluorooxetan-3-yl)methoxy)-5-(4-((4-(4-(oxetan-3-yl)piperazin-1-yl)phenyl)amino)-1,3,5-triazin-2-yl)benzonitrile] | 10 | 110 | 4 |
| COc1cc(Nc2ncnc(-c3ccc(OC4CCN(C(=O)[C@H](C)O)CC4)c(C#N)c3)n2)ccc1N1CCN(C2COC2)CC1 [Example 281, (S)-2-((1-(2-hydroxypropanoyl)piperidin-4-yl)oxy)-5-(4-((3-methoxy-4-(4-(oxetan-3-yl)piperazin-1-yl)phenyl)amino)-1,3,5-triazin-2-yl)benzonitrile] | 8 | 185 | 2 |
| C[C@H](Oc1ccc(-c2ncnc(Nc3ccc(N4CCN(C5COC5)CC4)cc3)n2)cc1C#N)C1CCOCC1 [Example 282, (S)-5-(4-((4-(4-(oxetan-3-yl)piperazin-1-yl)phenyl)amino)-1,3,5-triazin-2-yl)-2-(1-(tetrahydro-2H-pyran-4-yl)ethoxy)benzonitrile] | 16 | 219 | 14 |
| C[C@@H](Oc1ccc(-c2ncnc(Nc3ccc(N4CCN(C5COC5)CC4)cc3)n2)cc1C#N)C1CCOCC1 [Example 283, (R)-5-(4-((4-(4-(oxetan-3-yl)piperazin-1-yl)phenyl)amino)-1,3,5-triazin-2-yl)-2-(1-(tetrahydro-2H-pyran-4-yl)ethoxy)benzonitrile] | 115 | 450 | 22 |
| N#Cc1cc(-c2ncnc(Nc3ccc(N4CCN(C5COC5)CC4)cc3)n2)ccc1OCC1CCOCC1 [Example 285, 5-(4-((4-(4-(oxetan-3-yl)piperazin-1-yl)phenyl)amino)-1,3,5-triazin-2-yl)-2-((tetrahydro-2H-pyran-4-yl)methoxy)benzonitrile] | 8 | 313 | 4 |
| CC(C)[C@H](Oc1ccc(-c2ncnc(Nc3ccc(N4CCN(C5COC5)CC4)cc3)n2)cc1C#N)C(N)=O [Example 286, (S)-2-(2-cyano-4-(4-((4-(4-(oxetan-3-yl)piperazin-1-yl)phenyl)amino)-1,3,5-triazin-2-yl)phenoxy)-3-methylbutanamide] | 237 | ≥ 1000 | 94 |
| N#Cc1cc(-c2ncnc(Nc3ccc(N4CC(O)C4)nc3)n2)ccc1OC1CCOCC1 [Example 287, 5-(4-((6-(3-hydroxyazetidin-1-yl)pyridin-3-yl)amino)-1,3,5-triazin-2-yl)-2-((tetrahydro-2H-pyran-4-yl)oxy)benzonitrile] | 20 | ≥ 1000 | 15 |
| N#Cc1cc(-c2ncnc(Nc3ccc(N4CCN(C5COC5)CC4)cc3)n2)ccc1O[C@H]1CCN(C(=O)C(F)F)C[C@H]1F [Example 288, 2-(((3R,4S)-1-(2,2-difluoroacetyl)-3-fluoropiperidin-4-yl)oxy)-5-(4-((4-(4-(oxetan-3-yl)piperazin-1-yl)phenyl)amino)-1,3,5-triazin-2-yl)benzonitrile] | 2 | 316 | 3 |
| CC(=O)N1CC[C@H](Oc2ccc(-c3ncnc(Nc4ccc(N5CCN(C6COC6)CC5)cc4)n3)cc2C#N)[C@H](F)C1 [Example 289, 2-(((3R,4S)-1-acetyl-3-fluoropiperidin-4-yl)oxy)-5-(4-((4-(4-(oxetan-3-yl)piperazin-1-yl)phenyl)amino)-1,3,5-triazin-2-yl)benzonitrile] | 5 | 444 | 4 |
| N#Cc1cc(-c2ncnc(Nc3ccc(N4CCN(C5COC5)CC4)cc3)n2)ccc1O[C@H]1CCCC[C@H]1N [Example 291, 2-(((1S,2R)-2-aminocyclohexyl)oxy)-5-(4-((4-(4-(oxetan-3-yl)piperazin-1-yl)phenyl)amino)-1,3,5-triazin-2-yl)benzonitrile] | 603 | 474 | 266 |
| C[C@H](O)C(=O)N1CC[C@H](Oc2ccc(-c3ncnc(Nc4ccc(C5CCOCC5)cc4)n3)cc2C#N)[C@H](F)C1 [Example 293, 2-(((3R,4S)-3-fluoro-1-((S)-2-hydroxypropanoyl)piperidin-4-yl)oxy)-5-(4-((4-(tetrahydro-2H-pyran-4-yl)phenyl)amino)-1,3,5-triazin-2-yl)benzonitrile] | 2 | ≥ 1000 | 3 |
